Results on 21 compounds are retold here after patent publication US20240228499A1, “MASP-2 INHIBITORS AND METHODS OF USE” (Omeros Corporation, priority 2022, published 2024).

In one test the target is T1, human a-thrombin (Homo sapiens, UniProt P00734).
T1 construct: enzyme (human a-thrombin (BioPharm® Lab.)); purchased BioPharm Lab
The test can be described thus: Enzymatic assay for thrombin (fluorogenic peptide substrate Boc-VPR-AMC). As to conditions: room temperature, 20 mM Hepes pH 7.4, 20 min. In kind it is biochemical. In outline: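 Human α-thrombin was incubated with serially diluted compound and fluorogenic substrate Boc-VPR-AMC in 20 mM Hepes pH 7.4, 140 mM NaCl, 0.1% Tween 20 at room temperature. The reaction was stopped after 20 min with 0.1 M acetic acid and fluorescence read. % activity was normalized to DMSO and no-enzyme controls, and IC50 was taken as equivalent to Ki.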

Another test deals with T2, MASP-2 (CCP1-CCP2-SP) (Homo sapiens, UniProt O00187).
T2 construct: 15 μL of Enzyme MASP-2 (CCP1-CCP2-SP) in Assay Buffer
T2 sequence (O00187 287-686 limits assumed): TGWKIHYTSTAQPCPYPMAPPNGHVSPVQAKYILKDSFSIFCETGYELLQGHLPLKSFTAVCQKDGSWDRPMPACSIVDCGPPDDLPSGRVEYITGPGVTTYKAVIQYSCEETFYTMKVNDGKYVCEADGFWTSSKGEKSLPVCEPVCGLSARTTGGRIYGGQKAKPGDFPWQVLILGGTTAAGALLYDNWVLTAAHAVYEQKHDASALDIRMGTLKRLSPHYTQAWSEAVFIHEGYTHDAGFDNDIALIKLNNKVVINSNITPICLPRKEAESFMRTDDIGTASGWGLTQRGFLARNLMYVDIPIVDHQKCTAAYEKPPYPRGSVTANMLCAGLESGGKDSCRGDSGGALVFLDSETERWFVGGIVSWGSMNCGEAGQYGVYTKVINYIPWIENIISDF
The test can be described thus: Enzymatic assay for MASP-2 inhibitory activity (fluorogenic substrate). In kind it is biochemical. Particulars: room temperature, 20 mM Hepes pH 7.4, 20 min. In outline:
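Human MASP-2 CCP1-CCP2-SP construct with a C2-cleavage-site fluorogenic substrate in 20 mM HEPES pH 7.4, 140 mM NaCl, 0.1% Tween 20, 20 min at room temperature before acetic acid stop. Activity normalised to DMSO and no-enzyme controls; IC50 taken as equivalent to Ki under linear conditions.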

pKi: −log10 of the molar value. Counter-ions that a name gives are not always drawn.

The term pKi denotes the Ki on a negative log10 scale, so that one unit is a factor of ten. `Cc1nc(N)ccc1CNC(=O)[C@@H]1CCc2ncc(NCc3cccc(OC(F)(F)F)c3F)c(=O)n21` [Compound 39, (S)-N-((6-amino-2-methylpyridin-3-yl)methyl)-3-((2-fluoro-3-(trifluoromethoxy)benzyl)amino)-4-oxo-4,6,7,8-tetrahydro-pyrrolo[1,2-a]pyrimidine-6-carboxamide, di-trifluoroacetate]: the values for the pKi at human a-thrombin and at MASP-2 (CCP1-CCP2-SP) were 5.60 to 6.30 and above 6.30, respectively.
Consider `Cc1cc(C)cc(CNc2cnc3n(c2=O)[C@H](C(=O)NCc2cc4cnccc4[nH]2)CC3)c1` [Compound 6, (S)—N-((1H-pyrrolo[3,2-c]pyridin-2-yl)methyl)-3-((3,5-dimethylbenzyl)amino)-4-oxo-4,6,7,8-tetrahydropyrrolo[1,2-a]pyrimidine-6-carboxamide], for which the pKi at human a-thrombin was 5.00 to 5.60; on MASP-2 (CCP1-CCP2-SP) it was above 6.30.
Consider `Cc1cccc(C(C)Nc2cnc3n(c2=O)[C@H](C(=O)NCc2cc4c(s2)CNC4)CC3)c1` (single isomer, unassigned) [Compound 70, di-trifluoroacetate], for which the values for the pKi on human a-thrombin and on MASP-2 (CCP1-CCP2-SP) were 4.60 to 5.00 and above 6.30, respectively.
Consider `Cc1cc(CNc2cnc3n(c2=O)[C@H](C(=O)N[C@H](C)c2ccc(N)nc2)CC3)cc(C(F)(F)F)c1` [Compound 51, (S)—N—((R)-1-(6-aminopyridin-3-yl)ethyl)-3-((3-methyl-5-(trifluoromethyl)benzyl)amino)-4-oxo-4,6,7,8-tetrahydropyrrolo[1,2-a]pyrimidine-6-carboxamide. DI-trifluoroacetate], for which the figures for the negative logarithm of the Ki (pKi) at human a-thrombin and on MASP-2 (CCP1-CCP2-SP) were below 4.60 and above 6.30, respectively.
`Cc1nc(N)ccc1CNC(=O)[C@@H]1CCc2ncc(NCc3cc(F)cc(Cl)c3)c(=O)n21` [Compound 56, (S)—N-((6-amino-2-methylpyridin-3-yl)methyl)-3-((3-chloro-5-fluorobenzyl)amino)-4-oxo-4,6,7,8-tetrahydropyrrolo[1,2-a]pyrimidine-6-carboxamide]: the pKi at human a-thrombin was 5.60 to 6.30; on MASP-2 (CCP1-CCP2-SP), above 6.30.
Consider `Cc1cc(Cl)cc(CNc2cnc3n(c2=O)[C@H](C(=O)NCc2cccnc2)CC3)c1` [Compound 66], for which the pKi is below 4.60 on human a-thrombin and 5.60 to 6.30 at MASP-2 (CCP1-CCP2-SP).
The corresponding values for `Cc1cc(C)cc(CNc2cnc3n(c2=O)[C@H](C(=O)NCc2ccc(N)nc2C)CC3)c1` [Compound 1, (S)—N-((6-amino-2-methylpyridin-3-yl)methyl)-3-((3,5-dimethylbenzyl)amino)-4-oxo-4,6,7,8-tetrahydropyrrolo[1,2-a]pyrimidine-6-carboxamide] are 5.60 to 6.30 and above 6.30.
Regarding `Cc1cc(Cl)cc(CNc2cnc3n(c2=O)[C@H](C(=O)N[C@@H]2CCc4ncccc42)CC3)c1` [Compound 85, (S)-3-((3-chloro-5-methylbenzyl)amino)-N-((R)-6,7-dihydro-5H-cyclopenta[b]pyridin-5-yl)-4-oxo-4,6,7,8-tetrahydropyrrolo[1,2-a]pyrimidine-6-carboxamide], the values for the pKi at human a-thrombin and on MASP-2 (CCP1-CCP2-SP) were below 4.60 and above 6.30, respectively.
On to `Cc1ccc(CNc2cnc3n(c2=O)[C@H](C(=O)N[C@@H]2CCc4nc(N)ccc42)CC3)cc1C#N` [Compound 88, (S)-N-((R)-2-amino-6,7-dihydro-5H-cyclopenta[b]pyridin-5-yl)-3-((3-cyano-4-methylbenzyl)amino)-4-oxo-4,6,7,8-tetrahydro-pyrrolo[1,2-a]pyrimidine-6-carboxamide], for which the pKi on human a-thrombin was 5.60 to 6.30; at MASP-2 (CCP1-CCP2-SP) it was above 6.30.
The corresponding values for `COc1c(C)cccc1CNc1cnc2n(c1=O)[C@H](C(=O)NCc1ccc(N)nc1C)CC2` [Compound 10, (S)—N-((6-amino-2-methylpyridin-3-yl)methyl)-3-((2-methoxy-3-methylbenzyl)amino)-4-oxo-4,6,7,8-tetrahydropyrrolo[1,2-a]pyrimidine-6-carboxamide, trifluoroacetate] are 5.60 to 6.30 and above 6.30.
The corresponding values for `CCc1cccc(CNc2cnc3n(c2=O)[C@H](C(=O)NCc2ccc(N)nc2C)CC3)c1` [Compound 26] are 5.60 to 6.30 and above 6.30.
On to `Cc1cc(F)cc(CNc2cnc3n(c2=O)[C@H](C(=O)N[C@@H]2CCc4nc(N)ccc42)CC3)c1` [Compound 96], for which the pKi on human a-thrombin was 5.60 to 6.30; on MASP-2 (CCP1-CCP2-SP), above 6.30.
Turning to `Cc1cc(C)cc(CNc2cnc3n(c2=O)[C@H](C(=O)NCc2cc4cnc(C)cc4[nH]2)CC3)c1` [Compound 7, (S)-3-((3,5-dimethylbenzyl)amino)-N-((6-methyl-1H-pyrrolo[3,2-c]pyridin-2-yl)methyl)-4-oxo-4,6,7,8-tetrahydropyrrolo[1,2-a]pyrimidine-6-carboxamide, trifluoroacetate], the pKi was below 4.60 on human a-thrombin and above 6.30 at MASP-2 (CCP1-CCP2-SP).
On to `Cc1cc(Cl)cc(CNc2cnc3n(c2=O)[C@H](C(=O)NCc2ccc(N)nc2C)CC3)c1` [Compound 55, (S)-N-((6-amino-2-methylpyridin-3-yl)methyl)-3-((3-chloro-5-methylbenzyl)amino)-4-oxo-4,6,7,8-tetrahydropyrrolo[1,2-a]pyrimidine-6-carboxamide], for which the pKi on human a-thrombin and at MASP-2 (CCP1-CCP2-SP) was above 6.30 each time.
For the compound `Cc1ccc(F)cc1CNc1cnc2n(c1=O)[C@H](C(=O)NCc1ccc(N)nc1C)CC2` [Compound 31, (S)-N-((6-amino-2-methylpyridin-3-yl)methyl)-3-((5-fluoro-2-methylbenzyl)amino)-4-oxo-4,6,7,8-tetrahydropyrrolo[1,2-a]pyrimidine-6-carboxamide, di-trifluoroacetate], the pKi at human a-thrombin is 5.60 to 6.30; on MASP-2 (CCP1-CCP2-SP), above 6.30.
For `Cc1nc(N)ccc1CNC(=O)[C@@H]1CCc2ncc(NCc3cccc(CC#N)c3)c(=O)n21` [Compound 80, (S)-N-((6-amino-2-methylpyridin-3-yl)methyl)-3-((3-(cyanomethyl)benzyl)amino)-4-oxo-4,6,7,8-tetrahydropyrrolo[1,2-a]pyrimidine-6-carboxamide], the figures for the negative-log Ki (pKi) at human a-thrombin and at MASP-2 (CCP1-CCP2-SP) were 5.60 to 6.30 and above 6.30, respectively.
As to `Nc1ccc2c(n1)CC[C@H]2NC(=O)[C@@H]1CCc2ncc(NCc3cccc(-c4ccccc4)c3)c(=O)n21` [Compound 102], the pKi is 4.60 to 5.00 on human a-thrombin and above 6.30 on MASP-2 (CCP1-CCP2-SP).
For the compound `Cc1cc(C)cc(CNc2cnc3n(c2=O)[C@@H](C(=O)NCc2ccc(N)nc2C)CC3)c1` [Compound 78], the pKi on human a-thrombin is below 4.60; at MASP-2 (CCP1-CCP2-SP), 5.00 to 5.60.
The corresponding values for `Cc1cc(C)cc(CNc2cnc3n(c2=O)[C@H](C(=O)NCc2cccnc2C)CC3)c1` [Compound 23, (S)-3-((3,5-dimethylbenzyl)amino)-N-((2-methylpyridin-3-yl)methyl)-4-oxo-4,6,7,8-tetrahydropyrrolo[1,2-a]pyrimidine-6-carboxamide, trifluoroacetate] are below 4.60 and 5.00 to 5.60.
Turning to `Cc1cc(C)cc(CNc2cnc3n(c2=O)[C@H](C(=O)N[C@H](C)c2ccc(N)nc2)CC3)c1` [Compound 16], the negative logarithm of the Ki (pKi) on human a-thrombin was below 4.60; on MASP-2 (CCP1-CCP2-SP), above 6.30.
As to `Cc1nc(N)ccc1CNC(=O)[C@@H]1CCc2ncc(NCc3cnn(-c4ccccc4)c3)c(=O)n21` [Compound 24, (S)—N-((6-amino-2-methylpyridin-3-yl)methyl)-4-oxo-3-(((1-phenyl-1H-pyrazol-4-yl)methyl)amino)-4,6,7,8-tetrahydropyrrolo[1,2-a]pyrimidine-6-carboxamide, trifluoroacetate], the values for the pKi on human a-thrombin and at MASP-2 (CCP1-CCP2-SP) were 4.60 to 5.00 and above 6.30, respectively.
